# Assay: gradient 5% acetonitrile 3 min, to 50% in 2 min, to 85% in 15 min, held 3 min, 100 µL/min
# Conditions: column: Zorbax Extend-C18 2.1 x 50 mm; eluents: water / acetonitrile, 0.1% formic acid
# In short: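 Retention times come from adduct peaks that were picked computationally and then checked by hand. The standards, pure and pooled in mixtures of ~100 molecules, were run on a Zorbax Extend-C18 column (2.1 × 50 mm, 1.8 μm) at 100 μL/min with water and acetonitrile, each with 0.1% formic acid. Detection was by quadrupole time-of-flight mass spectrometry in positive and negative ionization mode, with a dead volume of 40 μL and a dwell volume of 900 μL.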
row,RP-LC retention time [s],Compound
1,816,O=C(c1cccc(Cl)c1)N1CCN(c2cc(-c3cccs3)[nH]n2)CC1
2,971,O=C(COc1ccc(Cl)cc1)Oc1ccc2nc(N3CCOCC3)sc2c1
3,805,CC(=O)NCc1nc(-c2ccc3oc(-c4ccccc4)nc3c2)no1
4,687,COc1cccc(NC(=O)Cn2c(C(C)C)nc3c(c2=O)CN(Cc2ccccc2)CC3)c1
5,676,C[C@@H]1CN(C(=O)NCc2ccco2)C[C@H]1c1nc(-c2ccncc2)no1
6,806,CCCNC(=O)NCc1nc(-c2ccc(Cl)cc2)no1
7,621,O=C(Nc1ccccc1F)NC1CCCN(c2cc(-c3ccncc3)[nH]n2)C1 (stereo not given)
8,718,COc1ccccc1C(=O)NCCc1nc2cccnc2n1C(C)C
9,609,Cc1cc(N2CCN(C(=O)Nc3ccc4c(c3)OCCO4)CC2)nc(N2CCOCC2)n1
10,970,O=C(C1CC(=O)N(c2ccccc2)C1)N1CCN(c2ccc(-c3noc(C4CCC4)n3)cc2)CC1 (stereo not given)
11,814,Cc1cc(N2C=C(C(=O)N3CCOCC3)S(=O)(=O)c3ccc(F)cc32)ccc1F
12,745,Cc1ccccc1CNc1nc2ccncc2n(C(C)C)c1=O
13,878,O=C(Cn1cccc(-c2nc(-c3ccc(F)cc3)no2)c1=O)Nc1ccc(F)cc1
14,855,COCCNC(=O)c1csc(N2CCN(c3cccc(OC)c3)CC2)n1
15,552,O=C([C@@H]1C[C@H](Oc2cccnc2)CN1C(=O)c1cnccn1)N1CCCC1
16,805,COc1ccccc1NC(=O)C1CCCN(c2ncnc3c2nc2n3CCCCC2)C1 (stereo not given)
17,668,O=[N+]([O-])c1c(NCCCO)cc(NCc2ccc3c(c2)OCO3)c2nonc12
18,768,CCCNC(=O)C1CCN(Cc2cc3ccccc3n2Cc2ccc(Cl)cc2)CC1
19,1050,COc1ccc(CCNc2nc(-c3ccc(Cl)cc3)cs2)cc1OC
20,1080,COc1ccccc1/C=C/c1nc(-c2ccc3oc(C)nc3c2)no1

row,RP-LC retention time [s],Compound
1,659,Cc1ncoc1C(=O)N1CCOc2ccc(NC(=O)C3CC3)cc2C1
2,762,O=S(=O)(c1cnc[nH]1)N1CCC(c2nc(CCOc3ccc(F)cc3)no2)C1 (stereo not given)
3,620,CC1(C)CC(NC(=O)c2cccc(Br)c2)CC(C)(C)N1
4,828,COc1cccc(Nc2c(-c3ccccc3)nc3cnccn23)c1
5,1300,COc1ccccc1N1CCN(S(=O)(=O)c2cc(-c3cc(C(F)(F)F)on3)sc2C)CC1
6,766,O=C1Nc2ccccc2SC1C(=O)N1CCC(C(=O)N2CCN(c3ccccc3)CC2)CC1 (stereo not given)
7,1080,CC1CC(=O)c2cnc(N3CCN(c4ccc(F)cc4)CC3)nc2C1 (stereo not given)
8,559,CCC(CC)CN1CCC(n2c(C)cnc2-c2ccccc2)C1 (stereo not given)
9,879,Cc1cccc(CN2CCCn3nc(C(=O)NC4CCCC4)cc3C2=O)c1
10,732,CCOC(=O)C1CCN(C(=O)CN2C(=O)C3CCCCN3c3ccc(C(=O)N(C)C)cc32)CC1 (stereo not given)
11,916,CC(C)C(=O)Nc1nc(-c2ccc(F)cc2)cs1
12,962,COCc1noc(C2CN(C(=O)c3ccc(Cl)s3)CC23CCCC3)n1 (stereo not given)
13,1060,Cc1nc2cc(-c3noc(-c4cncc(Br)c4)n3)ccc2o1
14,629,COC(=O)c1ccccc1NC(=O)Cn1cccc(-c2nc(-c3ccccc3)no2)c1=O
15,684,CN(C)CCNc1oc(-c2ccc(COc3ccccc3)o2)nc1C#N
16,566,CCCn1ncc(N2CCC(C(=O)N3CCN(C(C)C)CC3)CC2)cc1=O
17,1170,COC(=O)c1ccccc1NC(=O)c1c(O)c2cccc3c2n(c1=O)CC3
18,924,O=C(Cc1csc(NC(=O)Nc2cccc(Cl)c2)n1)Nc1ccccc1
19,750,CCCNC(=O)C1CCCN(c2ccc(SCC(=O)Nc3ccccc3C(=O)OCC)nn2)C1 (stereo not given)
20,642,Cn1nc(-c2nc(C3CC3)no2)c2c1CCN(C(=O)c1cccnc1)C2

# More lines, now with the values behind:
row,Compound,RP-LC retention time [s]
1,COc1ccc(C(=O)NC2CCN(c3cc(-c4cccs4)[nH]n3)C2)cc1F (stereo not given),720
2,Cc1nc(-c2ccncc2)nc2c1CCC(=O)N2C1CCCCC1,851
3,O=C(Nc1ccc(N2CCOCC2)cc1)c1cc(C2CC2)n2nccc2n1,846
4,Cc1cccc(-c2noc(C3CCCN3C(=O)NCCc3ccccc3)n2)c1 (stereo not given),593
5,CC(C)C(=O)N1CCc2c([nH]c3ccccc23)C12C(=O)N(C)c1ccc(Br)cc12 (stereo not given),976
6,CC(NC(=O)c1sc2ncccc2c1-n1cccc1)c1ccc(F)cc1 (stereo not given),1070
7,COCC1CN(C(C)=O)CC12CCN(C(=O)C1CC=CCC1)CC2 (stereo not given),671
8,Cn1cc2c3c(cccc31)CN(C(=O)c1ccc(F)c(Cl)c1)CC2,1070
9,Brc1ccc(-c2ccc(CNCc3cccnc3)o2)c(Br)c1,686
10,O=C(CCn1cnc2cc(-c3noc(/C=C/c4cccs4)n3)ccc21)N1CCCC1,774
11,CCNC(=O)c1c2c(nc3ccc(F)cc13)CCCC2,588
12,COc1ccc(-n2nnc(-c3nc(-c4cccc(OC)c4)cs3)c2N)cc1,1070
13,CC(=O)N1CCc2ccccc2C1C(=O)NCc1cccs1 (stereo not given),720
14,CCCN1CCN(c2cc(C(=O)O)c3cc(NS(=O)(=O)c4ccc(OCC)cc4)ccc3n2)CC1,624
15,O=C(O)c1cc2cc(OCc3ccccc3)ccc2[nH]1,903
16,COC(=O)c1ccc2c(C(C)=O)c[nH]c2c1,642
17,COCCNS(=O)(=O)c1cc(-c2nc(CC(C)C)cs2)cs1,1010
18,CCOC(=O)c1cc(C2CC2)nc2c1c(=O)n(Cc1ccc(C)cc1)c(=O)n2C,1260
19,CN(C)c1ccc2c(c1)CN(C(=O)C1CCC1)CCO2,590
20,Cc1ccc(CS(=O)(=O)N2CCC(n3c(-c4ccco4)nc4cccnc43)C2)cc1C (stereo not given),995
21,O=C(c1cc2ccccc2[nH]1)N1CCC2(CC1)N=C(c1ccc(Br)cc1)NO2,959
22,O=C(NCC1CCN(C(=O)COc2ccccc2)CC1)Nc1cccc(C(F)(F)F)c1,840
23,O=C(O)c1cn(Cc2cccc(F)c2)c(=O)c2ccccc12,822
24,O=C(C1CCN(c2ncnc3c2oc2ccccc23)CC1)N1CCCC1,654
25,COC[C@@H](NC(C)=O)C(=O)NCc1ccccc1,641

row,Compound,RP-LC retention time [s]
1,COc1cc2nc(C(=O)N3CCCCC3)cc(Nc3ccc(F)c(F)c3)c2cc1OC,720
2,CCn1c(=O)oc2cc(-c3noc(-c4ccnn4C)n3)ccc21,903
3,Cc1cc(NC(=O)N2CCC(c3cc(N)on3)CC2)ccc1Br,790
4,COc1ccc(Cl)cc1NC(=O)N1CCC2(CC1)NC(=O)c1ccccc1O2,1190
5,CCc1ccc2c(c1)-c1ccccc1S(=O)(=O)N2CC(=O)N1CCN(CC)CC1,678
6,CCn1nnc2c(N3CCN(S(=O)(=O)c4cccc(C(F)(F)F)c4)CC3)ncnc21,894
7,CC1(C(=O)NCc2ccc(Cl)cc2)Oc2cccnc2NC1=O (stereo not given),725
8,CSc1ccc(-c2nc3ccc(C)cn3c2NC2CCCCC2)cc1,878
9,CCCS(=O)(=O)N1CC(=O)N(c2cccc(Cl)c2)C(C)(C(=O)NC2CCCCC2)C1 (stereo not given),955
10,O=C(Nc1ccc2ncnc(N3CCCC3)c2c1)C1CCC1,628
11,O=C(c1cccnc1)N1CCCC(c2n[nH]c(C3CC3)n2)C1 (stereo not given),486
12,CC(C)c1ccc(NC(=O)C2CCN(S(C)(=O)=O)c3cc(Cl)ccc3O2)cc1 (stereo not given),1110
13,CCOc1cccc(C2c3[nH]c4ccccc4c3CCN2C(=O)COC)c1 (stereo not given),983
14,COC(=O)c1cncc(C)c1,662
15,O=C(NCCc1c[nH]c2ccccc12)c1ccc(N2C(=O)CCS2(=O)=O)cc1Cl,777
16,COc1ccc(C(C)NC(=O)C2CCCN(c3nccnc3Sc3ccc(C)cc3)C2)cc1 (stereo not given),1090
17,CCN(CC)S(=O)(=O)c1ccc2c(c1)N(CC(=O)N1CCCCC1)C(=O)C1CCCCN21 (stereo not given),905
18,CCCNC(=O)CCNc1c(-c2cccc(F)c2)nc2cnccn12,650
19,CCOc1ccc(N2CC(c3nc(-c4ccccc4F)no3)CC2=O)cc1 (stereo not given),967
20,Cc1ccc(C)c(NS(=O)(=O)c2cc3c(s2)CCN(C(=O)C2CC2)C3)c1,864
21,Cc1ccc(Cl)cc1N1CCN(C(=O)c2ccc3c(c2)NC(=O)C2CCCCN32)CC1 (stereo not given),1080
22,CN1c2ccc(Cl)cc2C(=O)NC12CCN(C(=O)c1cccc(F)c1)CC2,808
23,O=C(CSc1ccc(N2CCCC(C(=O)NC3CC3)C2)nn1)Nc1ccc(Cl)cc1 (stereo not given),682
24,CCN1CCN(CCCNC(=O)C(C)n2c(=O)c(C(F)(F)F)nc3cc(C)c(C)cc32)CC1 (stereo not given),649
25,O=C(CN1C(=O)CCc2cc(Br)ccc21)NCCc1ccccc1,870
